Measured values reported in patent US4053632A, “Compounds of spiro-amine type and methods for their use” (priority 1971, dated 1977).
“Also recorded” adds a separate entry of the source. Where two headings read alike, the source gives them in different places.

Experiments:
l-Dopa response = test: Dopa response potentiation test; type: in vivo, mouse
Protocol: This test is developed by G.M. Everett (Antidepressant drugs,[…] in groups of 3 are pretreated with Pargyline ®40 l mg/kg p.o. about 10-16 hours before the test. […] 1. piloerection, slight salivation, slight increased motor activity 2. piloerection, salivation, marked increased motor activity and irritability 3. piloerection, profuse salivation, marked irritability and reactivity, jumping, squeaking, fighting.

[1] = test system: uptake of 5-HT (midbrain slices); test: Inhibition of the uptake of tritiated 5-HT in vitro (brain slices); type: biochemical, mouse
[2] = test system: uptake of noradrenaline (cortex slices); test: Inhibition of the uptake of tritiated noradrenaline in vitro (brain slices); type: biochemical; settings: dl-noradrenaline 10^-7 M
[3] = test system: uptake of 5-HT (midbrain slices); test: Inhibition of the uptake of tritiated 5-HT in vivo; parameters: species or system mouse; settings: Mus musculus, ip, 0.5 h; i.p., in vivo; read-out: Inhibition (50 %) of uptake in vivo, 5-HT
Protocol: The drugs were administered intraperitoneally half an hour before the animals were killed and the midbrain was taken out and sliced and incubated in a mixture consisting of, per 100 mg of brain slices, 0.2 μmole of ^3 H-5-HT and 1 μmole of glucose in 2 ml of Krebs-Henseleit buffer, pH 7.4. The incubation time was 5 minutes with 5 minutes of preincubation before ^3 H-5-HT was added. The radioactive ^3 H-5-HT taken up in the slices was extracted with ethanol and the amount was determined by liquid scintillation. The dose producing 50 per cent decrease of the active uptake (ED50) was determined graphically from dose response curves. Active uptake is defined as that part of the radioactive uptake which is inhibited by a high concentration of cocaine. All doses were given at least to four animals.

[4] = test system: uptake of noradrenaline (cortex slices); test: Inhibition of the uptake of tritiated noradrenaline in vivo; settings: for ED50: ip, read-out: Inhibition (50 %) of uptake in vivo, NA; for effectiveness in blocking the uptake of noradrenaline in vivo relative to imipramine: versus imipramine
Protocol: The animals were killed half or one hour after the administration of the drugs in vivo (i.p.). The slices, made from cortex, were preincubated for five minutes and incubated with 0.1 μmole per ml of ^3 H-noradrenaline for further five minutes. The incubation mixture consisted of 0.2 μmole of ^3 H-NA and the brain slices in 2 ml of Krebs-Henseleits buffer, pH 7.4. The radioactive ^3 H-NA taken up in the slices was extracted with ethanol and the amount was determined by liquid scintillation. The dose producing 50 per cent decrease of the active uptake (ED50) was determined graphically from dose response curves. At least four animals were used at each dose level.

in vivo = settings: mouse
Protocol: (§1) The compounds were given by intravenous route to 3 mice. […] Seizures, gait, sedation and grip strength were recorded.
(§2) Acute toxicity was tested by the intraveneous, intraperitoneal and oral routes of administration. […] During the oral route a behavioral scoring system was used in order to relate changes in behavior to dose. The LD50 values were determined graphically from log dose -- response curves based on four doses with three animals per dose. Peripheral parasympatholytic effect was tested in mice by observing the mydriatic effect after intravenous injection (9) (four doses with three animals per dose). PD200 refers to the dose which increases the pupil width by 200%.

pupil width (mydriasis) [5] = test: Peripheral anticholinergic (parasympatholytic) effect, mydriasis in mice; settings: for Peripheral anti-cholinergic action PD200: i.v., dose increasing the pupil by 200%
Protocol: as §1, §2

5-HTP response = 5-HTP response potentiation test; type: in vivo, mouse; settings: for minimal effective dose: Mus musculus, ip
Protocol: These small movements are quantitatively measured in an activity box, type Animex, which can distinguish between small and gross movements. The activity is measured during 20 minutes and only in the case the animals have a fullblown syndrome.

motor activity = test: Motor activity in mice; type: in vivo, mouse; settings: mice; for ED50: Mus musculus, 1 h; for sedation (motor activity) versus CPZ: in words
Protocol: The exploratory activity of mice was recorded in a locomotion cage in which the movements were counted each time the animals cross-circuits on electrical current in the bottom plate. […] The animals were tested individually. Groups of six mice were used and the mice were only used once. The activity was expressed in percent of the activity of control groups ran simultaneously.
Sedative activity was defined as suppression of normal motor activity. The motor activity in mice was automatically recorded in a locomotion cage in which the movements are counted each time the animal short-circuits an electrical current in the bottom plate. […] The animals were tested individually. Groups of six mice were used. The activity was expressed in percent of the activity of control groups run simultaneously.

pupil width (mydriasis) [6] = settings: mouse, in vivo, iv, 10 min
Protocol: as §1, §2

mice = test: Acute toxicity in mice; settings: in words
Protocol: as §1, §2

[7] = test system: conditioned avoidance response (CAR); test: Conditioned avoidance response in rats; type: in vivo, rat; settings: rat; for CAR CD50: i.p., 60 min; for effect on conditioned avoidance response: in words
Protocol: For this reason the conditioned avoidance test has been developed for initial screening of neuroleptics. Rats were trained to avoid electrical shock by jumping from one compartment to the other in a shuttle box. The conditioned stimulus consists of an auditory signal which after eight seconds was followed by the electrical shock. The rates were trained to a criterion of making eight out of ten responses correctly. The drugs were injected one hour before the test. The avoidance responses are expressed in percentage of those before administration. CD50 is the dose which reduces the avoidance response to 50% of control values.

[8] = Mus musculus, ip; read-out: Potentiation of l-Dopa, effective dose
[9] = ip, i.p., read-out: Motor activity ID50 (Table 4)

CN(C)CCC=C1c2ccccc2CCc2ccccc21 [Amitriptyline, reference compound]
l-Dopa syndrome score (l-Dopa response; 20 mg/kg i.p. 4 hours before l-Dopa): three

CN(C)C1C=CC2(CC1)c1ccccc1C=Cc1ccccc12 (stereo not shown) [CPG 146]
Inhibition (50 %) of uptake in vitro, 5-HT [1]: 4 µg/mL | Inhibition (50 %) of uptake in vitro, NA [2]: 0.02 µg/mL | ED50 [3]: > 40 mg/kg | ED50 [4]: 1.7 mg/kg | effectiveness in blocking the uptake of noradrenaline in vivo relative to imipramine [4]: about three times as effective as imipramine | LD50 at 24 h (in vivo; iv): 30 mg/kg | Peripheral anti-cholinergic action PD200 (pupil width (mydriasis) [5]): 1 mg/kg

CN(C)C1CCC2(CC1)c1ccccc1C=Cc1ccccc12 [CPG 147]
Inhibition (50 %) of uptake in vitro, 5-HT [1]: 4 µg/mL | Inhibition (50 %) of uptake in vitro, NA [2]: 0.05 µg/mL | ED50 [3]: > 40 mg/kg | ED50 [4]: 1.5 mg/kg | effectiveness in blocking the uptake of noradrenaline in vivo relative to imipramine [4]: about three times as effective as imipramine | minimal effective dose (5-HTP response): > 25 mg/kg | minimal effective dose (l-Dopa response; [8]): 2.5 mg/kg | ED50 (motor activity; read-out: Motor activity ID50): 27 mg/kg | LD50 at 24 h (in vivo; iv): 32 mg/kg | Peripheral anti-cholinergic action PD200 (pupil width (mydriasis) [5]): 1 mg/kg

CNC1CCC2(CC1)c1ccccc1C=Cc1ccccc12 [CPG 148]
Inhibition (50 %) of uptake in vitro, 5-HT [1]: 3 µg/mL | Inhibition (50 %) of uptake in vitro, NA [2]: 1.5 µg/mL | ED50 [3]: > 40 mg/kg | ED50 [4]: > 40 mg/kg | minimal effective dose (5-HTP response): > 25 mg/kg | minimal effective dose (l-Dopa response; [8]): > 10 mg/kg | ED50 (motor activity; read-out: Motor activity ID50): 35 mg/kg | LD50 at 24 h (in vivo; iv): 60 mg/kg | Peripheral anti-cholinergic action PD200 (pupil width (mydriasis) [5]): 3.5 mg/kg

NC1CCC2(CC1)c1ccccc1C=Cc1ccccc12 [CPG 191]
Inhibition (50 %) of uptake in vitro, 5-HT [1]: 2 µg/mL | Inhibition (50 %) of uptake in vitro, NA [2]: 1.5 µg/mL | ED50 [3]: > 40 mg/kg | ED50 [4]: > 40 mg/kg | minimal effective dose (5-HTP response): > 25 mg/kg | minimal effective dose (l-Dopa response; [8]): > 10 mg/kg | ED50 (motor activity; read-out: Motor activity ID50): 53 mg/kg | Peripheral anti-cholinergic action PD200 (pupil width (mydriasis) [6]): < 10 mg/kg | LD50 at 24 h (in vivo; iv): 32 mg/kg

CNC1C=CC2(CC1)c1ccccc1C=Cc1ccccc12 (stereo not shown) [CPG 264]
Inhibition (50 %) of uptake in vitro, 5-HT [1]: 1.3 µg/mL | Inhibition (50 %) of uptake in vitro, NA [2]: 0.3 µg/mL | ED50 [3]: > 40 mg/kg | ED50 [4]: 1.3 mg/kg | effectiveness in blocking the uptake of noradrenaline in vivo relative to imipramine [4]: about three times as effective as imipramine | minimal effective dose (5-HTP response): > 25 mg/kg | minimal effective dose (l-Dopa response; [8]): > 10 mg/kg | ED50 (motor activity; read-out: Motor activity ID50): 13 mg/kg | LD50 at 24 h (in vivo; iv): 25 mg/kg | Peripheral anti-cholinergic action PD200 (pupil width (mydriasis) [5]): 2.5 mg/kg

CN(C)CCCN1c2ccccc2CCc2ccccc21 [Imipramine, reference compound]
Inhibition (50 %) of uptake in vitro, 5-HT [1]: 0.1 µg/mL | Inhibition (50 %) of uptake in vitro, NA [2]: 0.06 µg/mL | ED50 [3]: 24 mg/kg | ED50 [4]: 6 mg/kg | minimal effective dose (5-HTP response): 25 mg/kg | potentiation of dl-5-HTP (5-HTP response; reference, in words): constantly potentiated dl-5-HTP | minimal effective dose (l-Dopa response; Mus musculus, ip, read-out: Potentiation of l-Dopa, effective dose): 10 mg/kg | ED50 (motor activity; read-out: Motor activity ID50): 45 mg/kg | Peripheral anti-cholinergic action PD200 (pupil width (mydriasis) [5]): 13 mg/kg | anticholinergic effects (pupil width (mydriasis) [5]; in words): anticholinergic effects shared by imipramine

CN(C)C1C=CC2(CC1)c1ccccc1C=Cc1ccc(Cl)cc12 (stereo not shown) [SIR 114]
Inhibition (50 %) of uptake in vitro, 5-HT [1]: 7 µg/mL | Inhibition (50 %) of uptake in vitro, NA [2]: 2.5 µg/mL | ED50 [3]: > 40 mg/kg | ED50 [4]: > 40 mg/kg | minimal effective dose (5-HTP response): > 25 mg/kg | minimal effective dose (l-Dopa response; [8]): > 10 mg/kg | ED50 (motor activity; read-out: Motor activity ID50): 5.5 mg/kg | ED50 (motor activity; [9]): 5.5 mg/kg | sedation (motor activity) versus CPZ (motor activity): caused sedation in the mice at about the same dose as CPZ | PD200 (Table 4) (pupil width (mydriasis) [6]): 15 mg/kg | Peripheral anti-cholinergic action PD200 (pupil width (mydriasis) [6]): 15 mg/kg | LD50 at 24 h (in vivo; ip): 130 mg/kg | LD50 at 24 h (in vivo; iv): 22 mg/kg | acute toxicity versus CPZ (mice): intravenous toxicity in the same range as CPZ

CN(C)C1CCC2(CC1)c1ccccc1CCc1ccc(Cl)cc12 (stereo not shown) [SIR 117]
Inhibition (50 %) of uptake in vitro, 5-HT [1]: 5 µg/mL | Inhibition (50 %) of uptake in vitro, NA [2]: 1.5 µg/mL | ED50 [3]: > 40 mg/kg | ED50 [4]: > 40 mg/kg | minimal effective dose (5-HTP response): > 25 mg/kg | minimal effective dose (l-Dopa response; [8]): > 10 mg/kg | ED50 (motor activity; read-out: Motor activity ID50): 14 mg/kg | ED50 (motor activity; [9]): 14 mg/kg | sedation (motor activity) versus CPZ (motor activity): somewhat less active | PD200 (Table 4) (pupil width (mydriasis) [6]): 15 mg/kg | Peripheral anti-cholinergic action PD200 (pupil width (mydriasis) [6]): 15 mg/kg | LD50 at 24 h (in vivo; iv): 27 mg/kg | acute toxicity versus CPZ (mice): intravenous toxicity in the same range as CPZ

CN(C)C1CCC2(CC1)c1ccccc1C=Cc1ccc(Cl)cc12 (stereo not shown) [SIR 118]
Inhibition (50 %) of uptake in vitro, 5-HT [1]: 4 µg/mL | Inhibition (50 %) of uptake in vitro, NA [2]: 1.5 µg/mL | ED50 [3]: > 40 mg/kg | ED50 [4]: > 40 mg/kg | minimal effective dose (5-HTP response): > 25 mg/kg | minimal effective dose (l-Dopa response; [8]): > 10 mg/kg | ED50 (motor activity; read-out: Motor activity ID50): 11 mg/kg | ED50 (motor activity; [9]): 11 mg/kg | sedation (motor activity) versus CPZ (motor activity): somewhat less active | Peripheral anti-cholinergic action PD200 (pupil width (mydriasis) [6]): 9 mg/kg | LD50 at 24 h (in vivo; iv): 18 mg/kg | acute toxicity versus CPZ (mice): intravenous toxicity in the same range as CPZ

CN(C)C1C=CC2(CC1)c1ccccc1CCc1ccc(Cl)cc12 (stereo not shown) [SIR 124]
CAR CD50 [7]: > 10 mg/kg | effect on conditioned avoidance response [7]: relatively weak effect on CAR

CN(C)C1C=CC2(CC1)c1ccccc1CCc1ccc(Cl)cc12 (stereo not shown) [SIR 125]
CAR CD50 [7]: < 2.5 mg/kg | effect on conditioned avoidance response [7]: more potent than the racemate SIR 109 and also more potent than CPZ; also recorded: more potent than both SIR 109 and chlorpromazine | effect on conditioned avoidance response ([7]; listed as β-isomer): the biological activity mainly originates from the β-isomer
